Results from patent US7595310B2, “Glucuronate salt of a piperazine compound” (Solvay Pharmaceuticals, B.V., priority 2005, dated 2009).

Key:
[1] = rodents; cited from earlier work
[2] = system: 5HT reuptake; conditions: in therapeutic models; cited from earlier work
[3] = in vivo; cited from earlier work
[4] = molecular target: D2 receptors (Homo sapiens, UniProt P14416); conditions: in therapeutic models; cited from earlier work
[5] = Comparative equilibrium solubility of salts of compound 1; conditions: pH printed beside the equilibrium solubility

Chain of D2 receptors (P14416 whole entry): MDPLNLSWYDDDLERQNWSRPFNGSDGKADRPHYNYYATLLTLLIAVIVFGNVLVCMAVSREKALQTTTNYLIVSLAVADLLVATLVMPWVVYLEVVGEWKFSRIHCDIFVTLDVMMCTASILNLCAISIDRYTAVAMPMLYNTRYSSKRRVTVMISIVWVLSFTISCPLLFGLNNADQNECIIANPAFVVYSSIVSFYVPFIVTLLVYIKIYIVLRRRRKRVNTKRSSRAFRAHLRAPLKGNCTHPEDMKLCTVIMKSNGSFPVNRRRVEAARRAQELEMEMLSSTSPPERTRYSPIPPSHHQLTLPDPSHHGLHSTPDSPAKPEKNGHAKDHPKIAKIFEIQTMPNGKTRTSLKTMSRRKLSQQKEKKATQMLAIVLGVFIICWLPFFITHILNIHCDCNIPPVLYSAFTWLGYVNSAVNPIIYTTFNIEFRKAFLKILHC

Row | Compound | propensity to induce catalepsy [1] | activity against 5HT reuptake [2] | activity in therapeutic models sensitive to clinically relevant antipsychotics, antidepressants, anxiolytics, Parkinson's disease [3] | activity at D2 receptors [4] | pH ([5]; listed as freebase (1)) | pH ([5]; listed as glucuronate (2))
1 | CC1Oc2c(cccc2N2CCN(CCCc3c[nH]c4ccc(F)cc34)CC2)NC1=O (stereo not drawn) [compound 1, 8-{4-[3-(5-fluoro-1H-indol-3-yl)-propyl]-piperazin-1-yl}-2-methyl-4H-benzo[1,4]oxazin-3-one] | low propensity | inhibitory activity | active | antagonistic activity | 4.72 | –
2 | CC1Oc2c(cccc2N2CCN(CCCc3c[nH]c4ccc(F)cc34)CC2)NC1=O (stereo not drawn) [compound 2] | – | – | – | – | – | 4.25
